Laboratory results: PubChem BioAssay (NCI)
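How tested: cells in 96-well plates exposed to compound for 48 hours at five concentrations. GI50 is the concentration that inhibits growth by half. TGI is the concentration that stops growth completely.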

How the values were obtained:
Test in all cases: growth of human tumour cells (NCI), 48 h
SK-OV-3 ovarian = tested on: SK-OV-3 ovarian
MOLT-4 leukemia = tested on: MOLT-4 leukemia
IGROV1 ovarian = tested on: IGROV1 ovarian
EKVX NSCLC = tested on: EKVX NSCLC
DMS 273 small cell lung = tested on: DMS 273 small cell lung
SNB-78 CNS = tested on: SNB-78 CNS
NCI-H226 lung = tested on: NCI-H226 lung
HOP-18 NSCLC = tested on: HOP-18 NSCLC
DLD-1 colon = tested on: DLD-1 colon
HS 578T breast = tested on: HS 578T breast

## CCC(Oc1ccc(OC)c2ccccc(=O)c12)C(=O)O (stereo not given)
SK-OV-3 ovarian
  TGI: > 100 µM
MOLT-4 leukemia
  TGI: > 100 µM
IGROV1 ovarian
  TGI: > 100 µM
EKVX NSCLC
  TGI: > 100 µM
DMS 273 small cell lung
  TGI: > 100 µM
SNB-78 CNS
  TGI: > 100 µM
NCI-H226 lung
  TGI: > 100 µM

## CC(C)c1cc(OCC(O)CO)cc(C(C)C)c1 (stereo not given)
SK-OV-3 ovarian
  TGI: > 100 µM
MOLT-4 leukemia
  TGI: > 100 µM
IGROV1 ovarian
  TGI: > 100 µM
EKVX NSCLC
  TGI: > 100 µM
DMS 273 small cell lung
  TGI: > 100 µM
SNB-78 CNS
  TGI: > 100 µM
HOP-18 NSCLC
  TGI: > 100 µM
NCI-H226 lung
  TGI: > 100 µM
DLD-1 colon
  TGI: > 100 µM

## O=C1OC(c2ccccc2)=N/C1=C\c1cccc(F)c1
SK-OV-3 ovarian
  TGI: > 100 µM
MOLT-4 leukemia
  TGI: 67.9 µM
HS 578T breast
  TGI: > 100 µM
IGROV1 ovarian
  TGI: > 100 µM
EKVX NSCLC
  TGI: > 100 µM
NCI-H226 lung
  TGI: 92.8 µM

## CCOC(=O)c1c(C)c(C)n2c1NC(=O)C2
SK-OV-3 ovarian
  TGI: > 100 µM
MOLT-4 leukemia
  TGI: > 100 µM
HS 578T breast
  TGI: 70 µM
IGROV1 ovarian
  TGI: > 100 µM
EKVX NSCLC
  TGI: > 100 µM
DMS 273 small cell lung
  TGI: > 100 µM
HOP-18 NSCLC
  TGI: > 100 µM
NCI-H226 lung
  TGI: > 100 µM
DLD-1 colon
  TGI: > 100 µM

## ClCc1ccc(Cn2cnc3c(Cl)nc(Cl)nc32)cc1
SK-OV-3 ovarian
  GI50: 13.3 µM
  TGI: 29.6 µM
MOLT-4 leukemia
  GI50: 10.4 µM
  TGI: 27.4 µM
HS 578T breast
  GI50: 2.13 µM
  TGI: 5.77 µM
IGROV1 ovarian
  GI50: 15.3 µM
  TGI: 30.4 µM
EKVX NSCLC
  GI50: 17.3 µM
  TGI: 31.8 µM
NCI-H226 lung
  GI50: 3.55 µM
  TGI: 9.63 µM

## COc1cc2c(c(OC3OC(CO)C(O)C(O)C3O)c1)C(=O)CC(c1ccc(O)cc1)O2 (stereo not given)
SK-OV-3 ovarian
  TGI: > 100 µM
MOLT-4 leukemia
  TGI: > 100 µM
HS 578T breast
  TGI: > 100 µM
IGROV1 ovarian
  TGI: > 100 µM
EKVX NSCLC
  TGI: > 100 µM
NCI-H226 lung
  TGI: > 100 µM

## O=C1C2Nc3ccccc3SC2C(=O)N1c1ccccc1C(F)(F)F (stereo not given)
SK-OV-3 ovarian
  TGI: > 100 µM
MOLT-4 leukemia
  TGI: > 100 µM
IGROV1 ovarian
  TGI: > 100 µM
EKVX NSCLC
  TGI: > 100 µM
SNB-78 CNS
  TGI: 53.6 µM
HOP-18 NSCLC
  TGI: > 100 µM
NCI-H226 lung
  TGI: > 100 µM
DLD-1 colon
  TGI: > 100 µM

## O=C(O)CCSC(=O)Nc1ccc(N=Nc2ccccc2)cc1
SK-OV-3 ovarian
  TGI: > 100 µM
MOLT-4 leukemia
  TGI: > 100 µM
IGROV1 ovarian
  TGI: > 100 µM
EKVX NSCLC
  TGI: > 100 µM
DMS 273 small cell lung
  TGI: > 100 µM
SNB-78 CNS
  TGI: > 100 µM
HOP-18 NSCLC
  TGI: > 100 µM
NCI-H226 lung
  TGI: > 100 µM
DLD-1 colon
  TGI: > 100 µM

## CC1=C(C(=O)Nc2ccc([N+](=O)[O-])cc2)C(c2ccccc2F)C(C(=O)Nc2ccc([N+](=O)[O-])cc2)=C(C)N1
SK-OV-3 ovarian
  TGI: 79.7 µM
MOLT-4 leukemia
  TGI: 27.4 µM
IGROV1 ovarian
  TGI: > 100 µM
EKVX NSCLC
  TGI: > 100 µM
NCI-H226 lung
  TGI: 79.7 µM
DLD-1 colon
  TGI: > 100 µM

## COc1ccc2nc(NC(=O)C(=O)C(C#N)c3ccc(Cl)c(Cl)c3)sc2c1 (stereo not given)
SK-OV-3 ovarian
  TGI: > 100 µM
IGROV1 ovarian
  TGI: > 100 µM
EKVX NSCLC
  TGI: > 100 µM
DMS 273 small cell lung
  TGI: > 100 µM
SNB-78 CNS
  TGI: > 100 µM
NCI-H226 lung
  TGI: > 100 µM
DLD-1 colon
  TGI: > 100 µM

## Cc1cccc2nc3cccc(C(=O)NCCN(C)C)c3nc12
SK-OV-3 ovarian
  TGI: 6.74 µM
MOLT-4 leukemia
  TGI: > 100 µM
IGROV1 ovarian
  TGI: 15.5 µM
EKVX NSCLC
  TGI: 2.03 µM
DMS 273 small cell lung
  TGI: 4.17 µM
SNB-78 CNS
  TGI: 12 µM
HOP-18 NSCLC
  TGI: 84 µM
NCI-H226 lung
  TGI: 4.17 µM
DLD-1 colon
  TGI: 21.8 µM

## C=C1c2c(Cl)ccc(O)c2C(O)=C2C(=O)[C@]3(O)C(O)=C(C(N)=O)C(=O)[C@@H](N(C)C)[C@@H]3[C@@H](O)[C@H]12
SK-OV-3 ovarian
  GI50: 1 µM
  TGI: 3.2 µM
MOLT-4 leukemia
  GI50: 1.89 µM
  TGI: 12.3 µM
HS 578T breast
  GI50: 1.24 µM
  TGI: 9.68 µM
IGROV1 ovarian
  GI50: 1.03 µM
  TGI: 5.22 µM
EKVX NSCLC
  GI50: 1.51 µM
  TGI: 13 µM
NCI-H226 lung
  GI50: 1.59 µM
  TGI: 8.91 µM

## O=C(NS(=O)(=O)c1ccccc1)C(Cc1ccccc1)C(Cc1ccccc1)C(=O)NS(=O)(=O)c1ccccc1 (stereo not given)
SK-OV-3 ovarian
  TGI: > 100 µM
MOLT-4 leukemia
  TGI: > 100 µM
IGROV1 ovarian
  TGI: > 100 µM
EKVX NSCLC
  TGI: > 100 µM
DMS 273 small cell lung
  TGI: > 100 µM
HOP-18 NSCLC
  TGI: > 100 µM
NCI-H226 lung
  TGI: > 100 µM
DLD-1 colon
  TGI: > 100 µM

## CN1CC(=O)N(C)c2nc[nH]c2C1=O
SK-OV-3 ovarian
  TGI: > 100 µM
MOLT-4 leukemia
  TGI: > 100 µM
IGROV1 ovarian
  TGI: > 100 µM
EKVX NSCLC
  TGI: > 100 µM
DMS 273 small cell lung
  TGI: > 100 µM
SNB-78 CNS
  TGI: > 100 µM
HOP-18 NSCLC
  TGI: > 100 µM
NCI-H226 lung
  TGI: > 100 µM
DLD-1 colon
  TGI: > 100 µM

## COC(=O)[C@@H](C)C[C@H](Cc1ccccc1)NC(=O)c1csc([C@@H](C[C@H](C(C)C)N(C)C(=O)[C@H](C)NC(=O)[C@H]2CCCCN2C)OC(C)=O)n1
SK-OV-3 ovarian
  GI50: 11 µM
  TGI: > 25 µM
MOLT-4 leukemia
  GI50: 2.22 µM
  TGI: > 25 µM
HS 578T breast
  GI50: 1.39 µM
  TGI: > 25 µM
IGROV1 ovarian
  GI50: 1.14 µM
  TGI: > 25 µM
EKVX NSCLC
  GI50: 5.74 µM
  TGI: > 25 µM
NCI-H226 lung
  GI50: > 25 µM
  TGI: > 25 µM

## CC12Oc3ccc4ccccc4c3CC1Cc1c(ccc3ccccc13)O2 (stereo not given)
EKVX NSCLC
  TGI: > 100 µM
DMS 273 small cell lung
  TGI: 74.9 µM
HOP-18 NSCLC
  TGI: 98.7 µM
NCI-H226 lung
  TGI: > 100 µM
DLD-1 colon
  TGI: > 100 µM

## CCn1c2ccccc2c2cc(C(O)c3cccc4ncccc34)ccc21 (stereo not given)
SK-OV-3 ovarian
  GI50: 0.0545 µM
  TGI: > 100 µM
MOLT-4 leukemia
  GI50: 0.0633 µM
  TGI: > 100 µM
HS 578T breast
  GI50: 0.0505 µM
  TGI: 23.5 µM
IGROV1 ovarian
  GI50: 0.174 µM
  TGI: > 100 µM
EKVX NSCLC
  GI50: 0.0864 µM
  TGI: > 100 µM
NCI-H226 lung
  GI50: 0.831 µM
  TGI: 46.8 µM

## Cn1cnc([N+](=O)[O-])c1Sc1ncn[nH]1
SK-OV-3 ovarian
  GI50: > 100 µM
  TGI: > 100 µM
MOLT-4 leukemia
  GI50: > 100 µM
  TGI: > 100 µM
HS 578T breast
  GI50: 52.8 µM
  TGI: > 100 µM
IGROV1 ovarian
  GI50: 40.7 µM
  TGI: > 100 µM
EKVX NSCLC
  GI50: > 100 µM
  TGI: > 100 µM
NCI-H226 lung
  GI50: > 100 µM
  TGI: > 100 µM

## CC1(C)OC(=O)C=C([O-])O1.CC1(C)OC(=O)C=C([O-])O1.CC[O-].CC[O-].[Ti+4]
SK-OV-3 ovarian
  GI50: > 100 µM
  TGI: > 100 µM
MOLT-4 leukemia
  GI50: > 100 µM
  TGI: > 100 µM
IGROV1 ovarian
  GI50: > 100 µM
  TGI: > 100 µM
EKVX NSCLC
  GI50: > 100 µM
  TGI: > 100 µM
SNB-78 CNS
  GI50: > 100 µM
  TGI: > 100 µM
HOP-18 NSCLC
  GI50: > 100 µM
  TGI: > 100 µM
NCI-H226 lung
  GI50: > 100 µM
  TGI: > 100 µM
DLD-1 colon
  GI50: > 100 µM
  TGI: > 100 µM

## O=C(CC1C(=O)Nc2ccccc2S1=O)Nc1ccc(Cl)cc1 (stereo not given)
SK-OV-3 ovarian
  TGI: 63.9 µM
MOLT-4 leukemia
  TGI: > 100 µM
IGROV1 ovarian
  TGI: > 100 µM
DMS 273 small cell lung
  TGI: > 100 µM
SNB-78 CNS
  TGI: > 100 µM
NCI-H226 lung
  TGI: > 100 µM
DLD-1 colon
  TGI: > 100 µM

## O=C1OC(CN2CCOCC2)CN1/N=C/c1ccc([N+](=O)[O-])o1 (stereo not given)
SK-OV-3 ovarian
  TGI: > 100 µM
MOLT-4 leukemia
  TGI: > 100 µM
HS 578T breast
  TGI: > 100 µM
IGROV1 ovarian
  TGI: 84.8 µM
EKVX NSCLC
  TGI: > 100 µM
NCI-H226 lung
  TGI: > 100 µM

## C=C1[C@@H]([C@@]2(C)C=CC(=O)C(C)(C)[C@@H]2CC(=O)OC)CC[C@@]2(C)C(c3ccoc3)OC(=O)[C@H]3O[C@]132 (stereo not given in full)
SK-OV-3 ovarian
  TGI: > 100 µM
MOLT-4 leukemia
  TGI: > 100 µM
HS 578T breast
  TGI: > 100 µM
IGROV1 ovarian
  TGI: > 100 µM
EKVX NSCLC
  TGI: > 100 µM
NCI-H226 lung
  TGI: > 100 µM

## CC(C)CCN[C@@H]1CCc2cc(O)c(N3CC(=O)NS3(=O)=O)c(F)c2C1
SK-OV-3 ovarian
  GI50: > 100 µM
  TGI: > 100 µM
MOLT-4 leukemia
  GI50: > 100 µM
  TGI: > 100 µM
HS 578T breast
  GI50: > 100 µM
  TGI: > 100 µM
IGROV1 ovarian
  GI50: > 100 µM
  TGI: > 100 µM
EKVX NSCLC
  GI50: > 100 µM
  TGI: > 100 µM
NCI-H226 lung
  GI50: > 100 µM
  TGI: > 100 µM
